Experimental data reported in article PMC7738871, “Covalent modification of Keap1 at Cys77 and Cys434 by pubescenoside a suppresses oxidative stress-induced NLRP3 inflammasome activation in myocardial ischemia-reperfusion injury” (Theranostics, 2021).

How the values were obtained:
Keap1 C77S/C434S = molecular target: T1, Keap1 C77S/C434S (Homo sapiens, UniProt Q14145, C434S/C77S); test: ITC titration of PBA with Keap1-C77S/C434S; type: binding
T1 construct: His (N); made in house; host or cells: E. coli BL21 (DE3)
T1 sequence (Q14145 whole entry C77S/C434S): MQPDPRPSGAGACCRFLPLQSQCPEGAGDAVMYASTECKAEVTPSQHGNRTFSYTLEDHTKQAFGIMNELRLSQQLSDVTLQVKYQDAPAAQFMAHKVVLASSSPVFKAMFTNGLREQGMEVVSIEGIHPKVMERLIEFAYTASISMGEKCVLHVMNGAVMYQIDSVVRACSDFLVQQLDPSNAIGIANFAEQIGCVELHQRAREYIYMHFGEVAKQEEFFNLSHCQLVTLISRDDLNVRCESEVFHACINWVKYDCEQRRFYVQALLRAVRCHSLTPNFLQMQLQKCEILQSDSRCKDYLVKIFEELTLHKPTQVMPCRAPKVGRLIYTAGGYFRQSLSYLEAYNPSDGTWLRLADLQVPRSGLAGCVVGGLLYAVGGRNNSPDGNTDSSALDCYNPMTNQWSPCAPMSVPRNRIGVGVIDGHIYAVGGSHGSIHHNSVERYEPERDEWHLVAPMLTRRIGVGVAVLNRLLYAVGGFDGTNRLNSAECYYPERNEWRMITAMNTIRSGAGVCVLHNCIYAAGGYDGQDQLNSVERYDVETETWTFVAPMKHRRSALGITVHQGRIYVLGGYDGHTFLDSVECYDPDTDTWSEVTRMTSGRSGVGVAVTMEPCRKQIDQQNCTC
Protocol: (§1) The Keap1 was amplified by PCR using a human cDNA library, and was subcloned into the vector pET28-TEV, which contained one tobacco etch virus (TEV) protease cleavage site at the upstream multiple cloning site. The protein was expressed in E. coli BL21 (DE3) cells and incubated at 37 °C until the OD600 value reached 0.6, using 0.2 mM isopropyl β-D-1-thiogalactopyranoside (IPTG) overnight induction at 18 °C. The cells were isolated by centrifugation, resuspended in ice-cold lysis buffer and lysed by cryogenic overpressure cell breaker at 1,200 psi. The lysates were centrifuged for 60 min at 14,000 rpm to obtain the supernatant. Gravity flow purification of Keap1 protein was obtained at room temperature using 1 mL of Ni-NTA and eluted in buffer containing 250 mM imidazole, followed by 1 mL of HiTrap QHP for the second step purification. The final protein was purified and validated by Superdex 200 10/300GL resin.
(§2) The mutant plasmid DNA was obtained by PCR. The PCR products were cleaved by DpnI restriction enzymes. The restriction endonuclease-cleaved mixture was subsequently transformed into E. coli DH5α. Colonies were evaluated by colony PCR and sequenced. The mutant plasmid was transformed into E. coli BL21 (DE3) after successful sequencing. The steps for expression and purification of all recombinants were described above.
(§3) Isothermal calorimetry (ITC) titration experiments were performed at 25 °C. WT Keap1, Keap1 mutants and PBA were dissolved in binding buffer (40 mM Tris-HCl pH 8.0, 250 mM NaCl). In a typical experiment, 60 μL of PBA (1 mM) was injected 19 times at 2-min intervals from a stirring syringe into the sample cell containing 300 μL of WT protein or mutants (30 μM). The first injection was 0.4 μL of PBA, and the subsequent 18 injections were 2 μL each time. The site-binding models were determined by using MicroCal Origin software.

Keap1 WT = molecular target: T2, Keap1 WT (Homo sapiens, UniProt Q14145); test: ITC titration of PBA with Keap1-WT; type: binding; conditions: 25 ℃
T2 construct: His (N); made in house; host or cells: E. coli BL21 (DE3)
T2 sequence (Q14145 whole entry): as the sequence (Q14145 whole entry C77S/C434S) above, with S77C, S434C counted along it
Protocol: as §1, §3

NLRP3 inflammasome = test: OGD/R-induced NLRP3 inflammasome activation in H9c2; type: cell-based, rat; conditions: H9c2, OGD 6 h, reperfusion 18 h, dose-dependent
Protocol: For OGD/R treatment, H9c2 cells were washed twice with phosphate buffered saline (PBS). The medium was changed to glucose and serum free DMEM, and H9c2 cells were incubated in an incubator with 95% N2 and 5% CO2 at 37 °C. After 6 h, the medium was replaced with DMEM containing 10% FBS and 1% PS. Then H9c2 cells were returned to a normal incubator with 5% CO2 balanced with air at 37 °C for the indicated time.
Total protein was isolated from H9c2 cells, primary mouse cardiomyocytes, RAW264.7 cells and heart tissue using 1X RIPA buffer containing phosphatase and proteinase inhibitors at 4 °C. After measurement of the concentration, the cell lysates were separated by sodium dodecyl sulphate polyacrylamide gel electrophoresis (SDS-PAGE) and transferred to polyvinylidene fluoride (PVDF) membranes. […] After the membranes was washed by TBST buffer for three times, they were incubated with horseradish peroxidase (HRP)-conjugated secondary mouse or rabbit antibodies (1:3,000 dilution) at room temperature (RT) for 1.5 h and then detected by SuperEnhanced chemiluminescence (ECL) reaction reagents (GBCBIO Technologies Inc., Guangzhou, Guangdong, China). […] After letting the membranes stand for 1-2 min, the bands of the respective proteins were detected with the exposure time of 10 ~60 s.

Nrf2 = Nrf2 nuclear translocation; type: cell-based, rat; conditions: PBA for 6 h
Protocol: Total protein was isolated from H9c2 cells, primary mouse cardiomyocytes, RAW264.7 cells and heart tissue using 1X RIPA buffer containing phosphatase and proteinase inhibitors at 4 °C. After measurement of the concentration, the cell lysates were separated by sodium dodecyl sulphate polyacrylamide gel electrophoresis (SDS-PAGE) and transferred to polyvinylidene fluoride (PVDF) membranes. The membranes were blocked in Tris-buffered saline-Tween 20 (TBST) buffer with 5% BSA for 1 h and incubated with primary antibodies (1:1000 dilution) overnight at 4 °C. After the membranes was washed by TBST buffer for three times, they were incubated with horseradish peroxidase (HRP)-conjugated secondary mouse or rabbit antibodies (1:3,000 dilution) at room temperature (RT) for 1.5 h and then detected by SuperEnhanced chemiluminescence (ECL) reaction reagents (GBCBIO Technologies Inc., Guangzhou, Guangdong, China). […] After letting the membranes stand for 1-2 min, the bands of the respective proteins were detected with the exposure time of 10 ~60 s.
According to previous experiences, Nrf2 nucleus translocation could be detected at 6 h. […] After several washes with PBS, the bound antibodies were detected by Alexa Fluor 594-conjugated goat anti-rabbit or Alexa Fluor 488-conjugated goat anti-mouse IgG secondary antibody at RT for 1 h. […]

[1] = test system: recombinant Keap1 mutant proteins; test: Pull-down of recombinant Keap1 mutants with PBA-Sepharose 4B; type: binding, human; conditions: cysteine to serine mutants
Protocol: PBA-Sepharose 4B beads were created by dissolving PBA in coupling buffer (100 mM NaHCO3, pH 8.3, 0.5 M NaCl). After washing with 1 mM HCl medium, Sepharose 4B beads were mixed with PBA coupling buffer and slowly rotated overnight at 4 °C. Excess PBA was washed away with coupling buffer and any remaining active groups were blocked with 0.1 M Tris-HCl buffer (pH 8.0) for 2 h. The medium was then washed with 0.1 M acetate buffer (pH 4.0) containing 0.5 M NaCl followed by a wash with 0.1 M Tris-HCl (pH 8.0) that also contained 0.5 M NaCl. PBA-Sepharose 4B beads were ready for use in the pull-down assay. The RAW264.7 cellular supernatant fraction (600 µg) was incubated with either PBA-Sepharose 4B or Sepharose 4B as a negative control in reaction buffer (50 mM Tris-HCl, pH 7.5, 5 mM EDTA, 150 mM NaCl, 1 mM DTT, 0.01% NP-40, 2 µg/mL of BSA, 0.02 mM PMSF, 1 × protease inhibitor cocktail). After incubation with gentle rocking overnight at 4 °C, the beads were washed five times with wash buffer (50 mM Tris-HCl, pH 7.5, 5 mM EDTA, 150 mM NaCl, 1 mM DTT, 0.01% NP-40, 0.02 mM PMSF) and proteins bound to the beads were analyzed by immunoblotting assay with a Keap1 antibody.
The mutant plasmid DNA was obtained by PCR. The PCR products were cleaved by DpnI restriction enzymes. […] Colonies were evaluated by colony PCR and sequenced. […]

Keap1 C434S = molecular target: T3, Keap1 C434S (Homo sapiens, UniProt Q14145, C434S); test: ITC titration of PBA with Keap1-C434S; type: binding; conditions: 25 ℃
T3 construct: His (N); made in house; host or cells: E. coli BL21 (DE3)
T3 sequence (Q14145 whole entry C434S): as the sequence (Q14145 whole entry C77S/C434S) above, with S77C counted along it
Protocol: as §1, §2, §3

[2] = ITC, 25 ℃, Keap1 C77S/C434S double mutant

C=C(COC(=O)C=Cc1ccc(O)c(O)c1)C(O)COC1OC(CO)C(O)C(O)C1O (centres unmarked) [PBA, pubescenoside A]
Kd (Keap1 C77S/C434S; [2]): 38.6 µM
T△S (Keap1 C77S/C434S; [2]): 1.11 ± 0.00 kcal/mol
△G (Keap1 C77S/C434S; [2]): -6.03 ± 0.00 kcal/mol
△H (Keap1 C77S/C434S; [2]): -4.92 ± 0.637 kcal/mol
Kd weaker than that of the WT (Keap1 C77S/C434S; double mutant Cys77S/Cys434S vs WT Keap1): ~ 15 fold
Kd (Keap1 WT): 2.61 µM
T△S (Keap1 WT): 4.31 ± 0.00 kcal/mol
△G (Keap1 WT): -7.62 ± 0.00 kcal/mol
△H (Keap1 WT): -3.31 ± 0.199 kcal/mol
OGD/R-induced inflammasome activation (NLRP3, cleaved-caspase1, mature IL-1β) (NLRP3 inflammasome): substantially inhibited
Nrf2 translocation into nucleus (Nrf2): significantly promoted
binding of Keap1 mutants of Cys434, Cys77, Cys23 and Cys38 (pull-down) [1]: lost the capacity to bind
binding of other Keap1 mutants (pull-down) [1]: retained their high binding affinity
Kd (Keap1 C434S): 13.9 µM
T△S (Keap1 C434S): 1.87 ± 0.00 kcal/mol
△G (Keap1 C434S): -6.63 ± 0.00 kcal/mol
△H (Keap1 C434S): -4.76 ± 0.367 kcal/mol
